Experimental data: patent publication US20240368131A1, “OXOINDOLINYL AMIDE DERIVATIVES FOR INHIBITING NLRP3 AND USES THEREOF” (VENTUS THERAPEUTICS U.S. INC., priority 2022, published 2024)

Target: human NLRP3 (Homo sapiens, UniProt Q96P20)
Test: Human PBMC NLRP3 Assay (IL-1β release)
Type: cell-based
Set-up: Human PBMCs (Normal): iXCells Cat #10HU-003; host or cells: human PBMCs (normal donors), LPS-primed, nigericin-stimulated
Settings: human PBMCs, LPS priming 4 h, nigericin stimulation 1 h; class symbols
Protocol: Reagents: Human PBMCs (Normal): iXCells Cat #10HU-003; RPMI 1640 medium (ATCC modification): ThermoFisher Cat #A1049101 (Complete Media: 10% FBS, 1% Pen/Strep; Assay Media: 1% Pen/Strep; 75 cm^2 cell culture flask: Corning Cat #430641U; 96-well cell culture plates: VWR Cat #10062-900; LPS (E. coli 026:B6): Sigma Cat #L2654, stock 5 mg/mL in PBS; Nigericin sodium salt: Sigma Cat #N7143, stock 5 mg/mL (6.7 mM) in ethanol.
Cryopreserved PBMCs (10×10^6 cells/vial) were rapidly thawed in a 37° C. water bath for 2 min and transferred in 10 mL Complete Media. Cells were then centrifuged at 1200 RPM for 5 min, resuspended in 40 mL of Complete Media, transferred in a 75 cm^2 cell culture flask and incubated overnight at 37° C. with 5% CO2. The next day, PBMCs were centrifuged, resuspended in 30 mL Assay Media (˜3.3×10^5 cells/mL) and distributed at 100 μL/well in a 96-well cell culture plate. 50 μl of Assay Media containing 300 ng/ml of LPS was then added to each well except for the untreated control wells (50 μl Assay Media without LPS). Cells were then primed with LPS for 4 h at 37° C. with 5% CO2. A concentration response curve (CRC) was prepared of 500× test compound in 100% dimethyl sulfoxide (DMSO). The CRC was then diluted 1:25 in Assay Media and then further diluted 1:5 in Assay Media resulting in a final 4× CRC in 0.8% DMSO/Assay Media. 50 μL/well of 4× test compound CRC or vehicle (0.8% DMSO/Assay Media) was then transferred into each well and subsequently incubated for 30 min at 37° C. with 5% CO2. Cells were stimulated by adding 4 μL of 500 μM Nigericin, for 1 h at 37° C. with 5% CO2 Plates were then centrifuged at 1200 RPM for 5 min and 100 μl of the media was transferred to a clean 96-well storage plate and stored at −80° C. until analyzed. Cytokine measurements were performed using the mesoscale platform. Compounds were added 30 minutes before priming the cells with LPS when TNFα was required to be quantified in the cytokine panel to confirm selectivity.
Human PBMC NLRP3 Assay: A represents an IC50 value <0.3 μM; B represents an IC50 value ≥0.3 μM and <0.5 μM; C represents an IC50 value ≥0.5 μM and <1.0 μM; D represents an IC50 value >1.0 μM and <10 μM; E represents an IC50 value >10 μM.

human NLRP3, sequence (Q96P20 whole entry): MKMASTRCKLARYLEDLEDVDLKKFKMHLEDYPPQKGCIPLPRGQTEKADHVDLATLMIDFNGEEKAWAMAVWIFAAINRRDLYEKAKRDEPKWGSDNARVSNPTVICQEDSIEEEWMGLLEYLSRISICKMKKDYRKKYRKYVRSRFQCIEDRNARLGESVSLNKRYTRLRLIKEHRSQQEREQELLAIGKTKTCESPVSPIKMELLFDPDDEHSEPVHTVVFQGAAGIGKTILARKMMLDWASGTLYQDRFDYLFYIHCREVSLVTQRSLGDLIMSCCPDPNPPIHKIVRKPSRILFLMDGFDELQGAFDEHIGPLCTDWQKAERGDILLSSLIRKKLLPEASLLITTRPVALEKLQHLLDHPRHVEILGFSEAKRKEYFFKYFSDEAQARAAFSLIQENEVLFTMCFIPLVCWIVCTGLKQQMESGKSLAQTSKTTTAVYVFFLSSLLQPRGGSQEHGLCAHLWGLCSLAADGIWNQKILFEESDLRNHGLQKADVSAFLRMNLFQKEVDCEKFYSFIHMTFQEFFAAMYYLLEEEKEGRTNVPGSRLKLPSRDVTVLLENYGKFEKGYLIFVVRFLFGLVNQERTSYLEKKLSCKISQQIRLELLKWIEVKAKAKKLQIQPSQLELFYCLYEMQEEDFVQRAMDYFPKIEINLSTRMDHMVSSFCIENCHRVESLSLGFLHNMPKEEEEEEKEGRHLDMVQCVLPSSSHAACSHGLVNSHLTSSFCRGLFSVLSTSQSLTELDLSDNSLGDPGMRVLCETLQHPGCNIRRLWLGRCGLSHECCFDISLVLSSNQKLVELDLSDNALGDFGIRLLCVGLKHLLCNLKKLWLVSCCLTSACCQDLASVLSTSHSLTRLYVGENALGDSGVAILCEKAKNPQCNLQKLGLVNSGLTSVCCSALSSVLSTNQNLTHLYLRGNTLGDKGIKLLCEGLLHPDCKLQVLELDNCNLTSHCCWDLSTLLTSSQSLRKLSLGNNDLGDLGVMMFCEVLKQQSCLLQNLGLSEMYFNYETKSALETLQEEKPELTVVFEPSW

| IC50 | SMILES |
| --- | --- |
| < 300 nM | C[C@H](CCC(=O)O)NC(=O)CN1C(=O)C(C)(C)c2cc(Br)cc(O)c21 [Compound 41A, (R)-4-(2-(5-bromo-7-hydroxy-3,3-dimethyl-2-oxoindolin-1-yl)acetamido)pentanoic acid] |
| > 10000 nM | CC1(C)C(=O)N(C2(C(=O)NCCCC(=O)O)CC2)c2ccc(Br)cc21 [Compound 15, 4-(1-(5-bromo-3,3-dimethyl-2-oxoindolin-1-yl)cyclopropane-1-carboxamido)butanoic acid] |
| 1000 to 10000 nM | CC(C)(CCNC(=O)CN1C(=O)C(C)(C)c2cc(Br)ccc21)C(=O)O [Compound 14, 4-(2-(5-bromo-3,3-dimethyl-2-oxoindolin-1-yl)acetamido)-2,2-dimethylbutanoic acid] |
| 1000 to 10000 nM | Cc1ccc2c(c1)C(C)(C)C(=O)N2CC(=O)NCCCC(=O)O [Compound 7, 4-(2-(3,3,5-trimethyl-2-oxoindolin-1-yl)acetamido)butanoic acid] |
| 300 to 500 nM | CC(C)c1ccc2c(c1)C(C)(C)C(=O)N2CC(=O)NC(C)(C)CCC(=O)O [Compound 10, 4-(2-(5-isopropyl-3,3-dimethyl-2-oxoindolin-1-yl)acetamido)-4-methylpentanoic acid] |
| 300 to 500 nM | O=C(O)CCCNC(=O)CN1C(=O)C(F)(F)c2cc(Br)ccc21 [Compound 51, 4-(2-(5-bromo-3,3-difluoro-2-oxoindolin-1-yl)acetamido)butanoic acid] |
| > 10000 nM | CC1(C)C(=O)N(CC(=O)NCc2ccccc2C(=O)O)c2ccc(Br)cc21 [Compound 49, 2-((2-(5-bromo-3,3-dimethyl-2-oxoindolin-1-yl)acetamido)methyl)benzoic acid] |
| 500 to 1000 nM | CC(C)(CCC(=O)O)NC(=O)CN1C(=O)C(C)(C)c2cc(C(F)(F)F)ccc21 [Compound 8, 4-(2-(3,3-dimethyl-2-oxo-5-(trifluoromethyl)indolin-1-yl)acetamido)-4-methylpentanoic acid] |
| > 10000 nM | O=C(O)CCCNC(=O)CN1C(=O)C2(CCCC2)c2cc(Br)ccc21 [Compound 5, 4-(2-(5′-bromo-2′-oxospiro[cyclopentane-1,3′-indolin]-1′-yl)acetamido)butanoic acid] |
| > 10000 nM | CC1(C)C(=O)N(CC(=O)NCCCC(=O)O)c2cc(O)c(Br)cc21 [Compound 36, 4-(2-(5-bromo-6-hydroxy-3,3-dimethyl-2-oxoindolin-1-yl)acetamido)butanoic acid] |
| 500 to 1000 nM | O=C(O)CCCNC(=O)CN1C(=O)C2(CC2)c2cc(Br)ccc21 [Compound 6, 4-(2-(5′-bromo-2′-oxospiro[cyclopropane-1,3′-indolin]-1′-yl)acetamido)butanoic acid] |

Same assay, conditions: human PBMCs, LPS priming, nigericin stimulation; numeric values of Tables C1-C4

| IC50 | SMILES |
| --- | --- |
| 941 nM | CC1(C)C(=O)N(CC(=O)NCCCc2nnc[nH]2)c2c(F)cc(C3CC3)c(F)c21 [COMPARATIVE EXAMPLE 6, N-(3-(4H-1,2,4-triazol-3-yl)propyl)-2-(5-cyclopropyl-4,7-difluoro-3,3-dimethyl-2-oxoindolin-1-yl)acetamide, reference compound] |
| 47000 nM | O=C(O)CCCNC(=O)CN1C(=O)Cc2cc(Br)ccc21 [COMPARATIVE EXAMPLE 3, 4-(2-(5-bromo-2-oxoindolin-1-yl)acetamido)butanoic acid, reference compound] |
| > 100000 nM | O=C(O)CCCNC(=O)CN1C(=O)C(=O)c2cc(Br)ccc21 [COMPARATIVE EXAMPLE 4, 4-(2-(5-bromo-2,3-dioxoindolin-1-yl)acetamido)butanoic acid, reference compound] |
| 676 nM | CC1(C)C(=O)N(CC(=O)NCCCc2cn[nH]n2)c2c(F)cc(C3CC3)c(F)c21 [COMPARATIVE EXAMPLE 7, N-(3-(2H-1,2,3-triazol-4-yl)propyl)-2-(5-cyclopropyl-4,7-difluoro-3,3-dimethyl-2-oxoindolin-1-yl)acetamide, reference compound] |
| 410 nM | O=C(O)CCCNC(=O)CN1C(=O)C(F)(F)c2cc(Br)ccc21 [Compound 51, 4-(2-(5-bromo-3,3-difluoro-2-oxoindolin-1-yl)acetamido)butanoic acid] |
| > 100000 nM | O=C(O)CCNC(=O)Cn1ccc2cc(Br)ccc21 [COMPARATIVE EXAMPLE 5, 3-(2-(5-bromo-1H-indol-1-yl)acetamido)propanoic acid, reference compound] |
| 690 nM | CC(C)(CCC(=O)O)NC(=O)CN1C(=O)C(C)(C)c2cc(C(F)(F)F)ccc21 [Compound 8, 4-(2-(3,3-dimethyl-2-oxo-5-(trifluoromethyl)indolin-1-yl)acetamido)-4-methylpentanoic acid] |
| 570 nM | O=C(O)CCCNC(=O)CN1C(=O)C2(CC2)c2cc(Br)ccc21 [Compound 6, 4-(2-(5′-bromo-2′-oxospiro[cyclopropane-1,3′-indolin]-1′-yl)acetamido)butanoic acid] |
